Experimental data: patent US20260174769A1, “MACROCYCLIC COMPOUNDS AND METHODS OF USE” (AMGEN INC., priority 2022, published 2026)

target: His-tagged KRAS G12D protein (Homo sapiens, UniProt P01116, G12D); experiment: KRAS G12D TR-FRET Assay; format: binding; settings: TR-FRET binding
Description: The His-tagged KRAS G12D protein (Amgen) was diluted to 20 nM in Assay Buffer (20 mM HEPES, pH 7.4, 10 mM MgCl2, 50 mM NaCl, 0.1% BSA, 0.01% Tween-20, 10 μM GDP) and 2 μL was added to the appropriate wells of the 384-well plate. The plate was incubated for 30 minutes at room temperature. Biotinylated KRPep-2d substrate (Amgen) was diluted to 20 nM in Assay Buffer and 2 μL was added to all wells and incubated for 1 hour at room temperature. Detection Reagent (0.4 nM LANCE Eu-W1024 Anti-6×His (Perkin Elmer AD0401), 5 nM streptavidin-d2 (Cisbio 610SADLA)) was prepared in Assay Buffer, then 4 μL was added to the plate and incubated for 1 hour at room temperature.

His-tagged KRAS G12D protein, sequence (P01116 1-188 isoform P01116-2 G12D): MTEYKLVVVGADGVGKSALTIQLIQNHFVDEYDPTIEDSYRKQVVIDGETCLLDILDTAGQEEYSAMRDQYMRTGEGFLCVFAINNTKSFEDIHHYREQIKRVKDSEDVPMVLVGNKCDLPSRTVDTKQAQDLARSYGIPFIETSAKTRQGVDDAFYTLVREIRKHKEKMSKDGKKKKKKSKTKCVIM

| IC50 | Structure (SMILES) |
| --- | --- |
| 5 nM | O=C1N[C@@H]2CCCCN(C2)c2nc(OC[C@@]34CCCN3C[C@H](F)C4)nc3c(F)c(ncc23)-c2c3c(cc4[nH]ncc24)CC[C@H]3CCO1 (single isomer, unassigned) [Example 301] |
| 1270 nM | O=C1N[C@@H]2CCCCN(C2)c2nc(OC[C@@]34CCCN3C[C@H](F)C4)nc3c(F)c(ncc23)-c2c3c(cc4[nH]ncc24)CC[C@@H]3CCO1 (single isomer, unassigned) [Example 302] |
| 6 nM | C[C@@]12COCCN(C1)c1nc(OC[C@H]3CC[C@@H]4COCCN43)nc3c(F)c(ncc13)-c1c(c(Cl)cc3[nH]ncc13)CCCOC(=O)O2 (single isomer, unassigned) [Example 308] |
| 10 nM | C[C@@]12COCCN(C1)c1nc(OC[C@@H]3CC[C@H]4COCCN43)nc3c(F)c(ncc13)-c1c(c(Cl)cc3[nH]ncc13)CCCOC(=O)O2 (single isomer, unassigned) [Example 309] |
| 2260 nM | O=C1OCCCc2c(Cl)cc3[nH]ncc3c2-c2ncc3c(nc(OC[C@@]45CCCN4C[C@H](F)C5)nc3c2F)N2CCOC[C@@](CF)(C2)O1 (single isomer, unassigned) [Example 310] |
| 5 nM | O=C1OCCCc2c(Cl)cc3[nH]ncc3c2-c2ncc3c(nc(OC[C@@]45CCCN4C[C@H](F)C5)nc3c2F)N2CCOC[C@](CF)(C2)O1 (single isomer, unassigned) [Example 311] |
| 99 nM | Cc1cc2[nH]ncc2c2c1CCOC(=O)O[C@H]1C[C@@]3(CCCN(C3)c3nc(OC[C@@H]4CCCN4C)nc4c(F)c-2ncc34)C1 (single isomer, unassigned) [Example 325] |
| 4 nM | Cc1cc2[nH]ncc2c2c1CCOC(=O)O[C@H]1C[C@]3(CCCN(C3)c3nc(OC[C@@H]4CCCN4C)nc4c(F)c-2ncc34)C1 (single isomer, unassigned) [Example 326] |
| 5 nM | CN(C)CC1(COc2nc3c4cnc(c(F)c4n2)-c2c(c(Cl)cc4[nH]ncc24)CCCOC(=O)O[C@]2(C)COCCN3C2)CC1 (single isomer, unassigned) [Example 331] |
| 3240 nM | CN(C)CC1(COc2nc3c4cnc(c(F)c4n2)-c2c(c(Cl)cc4[nH]ncc24)CCCOC(=O)O[C@@]2(C)COCCN3C2)CC1 (single isomer, unassigned) [Example 332] |
| 2440 nM | CN1CCC[C@H]1COc1nc2c3cnc(c(F)c3n1)-c1c(c(Cl)cc3[nH]ncc13)CCCOC(=O)O[C@@]1(CF)COCCN2C1 (single isomer, unassigned) [Example 337] |
| 7 nM | CN1CCC[C@H]1COc1nc2c3cnc(c(F)c3n1)-c1c(c(Cl)cc3[nH]ncc13)CCCOC(=O)O[C@]1(CF)COCCN2C1 (single isomer, unassigned) [Example 338] |
| 4 nM | O=C1OCCCc2c(Cl)cc3[nH]ncc3c2-c2ncc3c(nc(OC[C@@]45CCCN4C[C@H](F)C5)nc3c2F)N2CCCC[C@](CF)(C2)O1 (single isomer, unassigned) [Example 340] |
| 464 nM | [2H]C([2H])([2H])[C@]12COCCN(C1)c1nc(OC[C@@]34CCCN3C[C@H](F)C4)nc3c(F)c(ncc13)-c1c(c(C)cc3[nH]ncc13)CCCOC(=O)O2 (single isomer, unassigned) [Example 351] |
| 6 nM | [2H]C([2H])([2H])[C@@]12COCCN(C1)c1nc(OC[C@@]34CCCN3C[C@H](F)C4)nc3c(F)c(ncc13)-c1c(c(C)cc3[nH]ncc13)CCCOC(=O)O2 (single isomer, unassigned) [Example 352] |
| 1590 nM | [2H]C([2H])([2H])[C@]12COCCN(C1)c1nc(OC[C@@]34CCCN3C[C@H](F)C4)nc3c(F)c(ncc13)-c1c(c(Cl)cc3[nH]ncc13)CCCOC(=O)O2 (single isomer, unassigned) [Example 354] |
| 3 nM | C[C@@]12COCCN(C1)c1nc(OC[C@@]34CCCN3C[C@H](F)C4)nc3c(F)c(ncc13)-c1c3c(cc4[nH]ncc14)CC[C@H]3CCOC(=O)O2 (single isomer, unassigned) [Example 365] |
| 938 nM | C[C@@]12COCCN(C1)c1nc(OC[C@@]34CCCN3C[C@H](F)C4)nc3c(F)c(ncc13)-c1c3c(cc4[nH]ncc14)CC[C@@H]3CCOC(=O)O2 (single isomer, unassigned) [Example 366] |
| 4 nM | O=C1OCC[C@@H]2CCc3cc4[nH]ncc4c(c32)-c2ncc3c(nc(OC[C@@]45CCCN4C[C@H](F)C5)nc3c2F)N2CCOC[C@H](C2)O1 (single isomer, unassigned) [Example 367] |
| 2 nM | CN(C)CC1(COc2nc3c4cnc(c(F)c4n2)-c2c(c(Cl)cc4[nH]ncc24)CCOC(=O)O[C@H]2C[C@]4(CCCN3C4)C2)CC1 [Example 334, (1S,3R)-10-chloro-24-((1-((dimethylamino)methyl)cyclopropyl)methoxy)-32-fluoro-4,6-dioxa-13,14,19,23,25,27-hexaazaheptacyclo[25.3.1.1~1,3~.1~18,22~.0~9,17~.0~12,16~.0~21,26~]tritriaconta-9,11,14,16,18(32),19,21,23,25-nonaen-5-one] |

same assay, conditions: TR-FRET; read-out: KRAS G12D Binding IC50

| IC50 | Structure (SMILES) |
| --- | --- |
| 27 nM | Fc1c2ncc3c(nc(OC[C@@]45CCCN4C[C@H](F)C5)nc13)N1CCOC[C@H](Cc3ncc(o3)CCc3c(Cl)cc4[nH]ncc4c3-2)C1 (single isomer, unassigned) [Example 375] |
| 16 nM | Fc1c2ncc3c(nc(OC[C@@]45CCCN4C[C@H](F)C5)nc13)N1CCOC[C@@H](Cc3ncc(o3)CCc3c(Cl)cc4[nH]ncc4c3-2)C1 (single isomer, unassigned) [Example 376] |
| 3730 nM | Fc1c2ncc3c(nc(OC[C@@]45CCCN4C[C@H](F)C5)nc13)N1CCC[C@@H](C1)c1cnc(o1)CCCc1c(Cl)cc3[nH]ncc3c1-2 (single isomer, unassigned) [Example 386] |
| 3960 nM | Fc1c2ncc3c(nc(OC[C@@]45CCCN4C[C@H](F)C5)nc13)N1CCO[C@@H](C1)c1coc(n1)CCCc1c(Cl)cc3[nH]ncc3c1-2 (single isomer, unassigned) [Example 389] |
| 5 nM | Fc1c2ncc3c(nc(OC[C@@]45CCCN4C[C@H](F)C5)nc13)N1CCO[C@H](C1)c1coc(n1)CCCc1c(Cl)cc3[nH]ncc3c1-2 (single isomer, unassigned) [Example 390] |
| 6 nM | Fc1c2ncc3c(nc(OC[C@@]45CCCN4C[C@H](F)C5)nc13)N1CCO[C@@H](COCC[C@@H]3C[C@@H]3c3c(Cl)cc4[nH]ncc4c3-2)C1 (single isomer, unassigned) [Example 392] |
| 1810 nM | Fc1c2ncc3c(nc(OC[C@@]45CCCN4C[C@H](F)C5)nc13)N1CCO[C@@H](COCC[C@H]3C[C@H]3c3c(Cl)cc4[nH]ncc4c3-2)C1 (single isomer, unassigned) [Example 393] |
| 4 nM | Fc1c2ncc3c(nc(OC[C@@]45CCCN4C[C@H](F)C5)nc13)N1CCCC[C@](F)(COCCCCc3c(Cl)cc4[nH]ncc4c3-2)C1 (single isomer, unassigned) [Example 398] |
| 4 nM | Fc1c2ncc3c(nc(OC[C@@]45CCCN4C[C@H](F)C5)nc13)N1CCCC[C@@](F)(COCCCCc3c(Cl)cc4[nH]ncc4c3-2)C1 (single isomer, unassigned) [Example 399] |
| 3 nM | O=C1CCCCc2c(Cl)cc3[nH]ncc3c2-c2ncc3c(nc(OC[C@@]45CCCN4C[C@H](F)C5)nc3c2F)N2CC[C@@H]3[C@H](C2)N1CC3(F)F (single isomer, unassigned) [Example 403] |
| 21 nM | O[C@@H]1C[C@@H]2COCCCCc3c(Cl)cc4[nH]ncc4c3-c3ncc4c(nc(OC[C@@]56CCCN5C[C@H](F)C6)nc4c3F)N(C1)C2 (single isomer, unassigned) [Example 406] |
| 6 nM | O[C@H]1C[C@H]2COCCCCc3c(Cl)cc4[nH]ncc4c3-c3ncc4c(nc(OC[C@@]56CCCN5C[C@H](F)C6)nc4c3F)N(C1)C2 (single isomer, unassigned) [Example 407] |

test system: Phosphorylation of ERK1/2 in AsPC-1 cells; experiment: Phospho-ERK1/2 MSD Assay; format: cell-based, human; settings: AsPC-1 cells, 2 h compound treatment; read-out: 2 h p-ERK (AsPC-1 cells), IC50
Description: Sixteen hours prior to compound treatment, AsPC-1 cells were seeded in 96-well cell culture plates at a density of 25,000 cells/well and incubated at 37° C., 5% CO2. A compound dose-response titration was diluted in growth media, added to appropriate wells of a cell culture plate, and then incubated at 37° C., 5% CO2 for 2 hours. […] Phosphorylation of ERK1/2 in compound-treated lysates was assayed using Phospho-ERK 1/2 Whole Cell Lysate kits (Meso Scale Discovery K151DWD) according to the manufacturer's protocol. Assay plates were read on a Meso Scale Discovery Sector Imager 6000, and data were analyzed using a 4-parameter logistic model to calculate IC50 values.

| IC50 | Structure (SMILES) |
| --- | --- |
| 826 nM | O=C1OCCCc2c(Cl)cc3[nH]ncc3c2-c2ncc3c(nc(OC[C@@]45CCCN4C[C@H](F)C5)nc3c2F)N2CCCC[C@@](CF)(C2)O1 [Example 339, (26S)-18-chloro-32-fluoro-26-(fluoromethyl)-4-(((2R,7aS)-2-fluorotetrahyrdo-1H-pyrrolo[1,2-a]pyrrol-7a(5H)-yl)methoxy)-23,25-dioxa-1,3,5,9,14,15-hexaazahexacyclo[24.4.1.1~6,10~.0~2,7~.0~11,19~.0~12,16~]dotriaconta-2,4,6,8,10(32),11,13,16,18-nonaen-24-one] |

same assay, conditions: Homo sapiens, ASPC1, 2 h, AsPC-1 cells, 2 h compound treatment; read-out: 2 h p-ERK (AsPC-1 cells), IC50

| IC50 | Structure (SMILES) |
| --- | --- |
| 278 nM | Cc1cc2[nH]ncc2c2c1CCCn1ncc(n1)C1CCCN(C1)c1nc(OC[C@@]34CCCN3C[C@H](F)C4)nc3c(F)c-2ncc13 (stereo partly drawn) [Example 158, 31-Fluoro-25-(((2R,7aS)-2-fluorotetrahydro-1H-pyrrolo[1,2-a]pyrrol-7a(5H)-yl)methoxy)-9-methyl-5,6,14,15,22,24,26,30,33-nonaazaheptacyclo[25.3.1.1˜14,17˜.1˜18,22˜.0˜2,10˜.0˜3,7˜.0˜23,28˜]tritriaconta-1(31),2,4,7,9,15,17(33),23,25,27,29-undecaene] |
| 8 nM | CN(C)CC1(COc2nc3c4cnc(c(F)c4n2)-c2c(c(Cl)cc4[nH]ncc24)CCOC(=O)O[C@H]2C[C@]4(CCCN3C4)C2)CC1 [Example 334, (1S,3R)-10-chloro-24-((1-((dimethylamino)methyl)cyclopropyl)methoxy)-32-fluoro-4,6-dioxa-13,14,19,23,25,27-hexaazaheptacyclo[25.3.1.1~1,3~.1~18,22~.0~9,17~.0~12,16~.0~21,26~]tritriaconta-9,11,14,16,18(32),19,21,23,25-nonaen-5-one] |
